Key:
[1] = system: SKOV3-Ip1 / HeyA8 tumor xenograft; assay: Combination study, intraperitoneal ovarian tumor xenograft models in nude mice; format: in vivo; settings: pazopanib 100 mg/kg oral daily
Protocol: Tumor cells were injected intraperitoneally into nude mice. For the first study, mice were inoculated with 1,000,000 SKOV3-Ip1 cells. For the second study, mice were inoculated with 250,000 HeyA8 cells. At the time of inoculation, mice were randomized into groups to be treated by oral gavage and intraperitoneal injection. The animals were grouped as described below. The criteria for end point was animals in any group being moribund. At the time of dissection, animals were sacrificed by cervical dislocation and necropsy immediately performed. Tumor nodules were counted and aggregate tumor weight (g) was recorded. Tumors were fixed in 10% formalin, and fresh tumor was flash-frozen for future analysis.
The goal of this study was to determine the in vivo effects of each of pazopanib, the FAK inhibitor, and docetaxel, alone and in combinations. Nude mice were inoculated with tumor as described above and randomized to the groups below. The following doses of each inhibitor were used: FAK-inhibitor, 75 mg/kg, oral, daily; pazopanib, 100 mg/kg, oral, daily; docetaxel, 35 ug, IP, weekly. […] Tumor nodules were counted and aggregate tumor weight (g) was recorded. […]
In vitro dose-response, in vivo tumor growth and scoring of the immunohistochemistry are presented as mean±Standard Error. Statistical significance was assessed by student's T-test and P≦0.05 was considered to be significant. […]

[2] = system: SKOV3-IP1 cells; assay: Migration of SKOV3-IP1 cells; format: cell-based, human; settings: p<0.001
[3] = system: SKOV3-IP1 cells; assay: Invasion of SKOV3-IP1 cells; format: cell-based, human; settings: p<0.001
[4] = target: T1, FAK phosphorylation at Y397 (pFAK^Y397) (Homo sapiens, UniProt Q05397); assay: FAK phosphorylation at Y397 (pFAK Y397) in ovarian cancer cells; format: cell-based
T1 construct: endogenous in cells; host or cells: SKOV3-IP1 and HeyA8 cells
T1 sequence (Q05397 whole entry): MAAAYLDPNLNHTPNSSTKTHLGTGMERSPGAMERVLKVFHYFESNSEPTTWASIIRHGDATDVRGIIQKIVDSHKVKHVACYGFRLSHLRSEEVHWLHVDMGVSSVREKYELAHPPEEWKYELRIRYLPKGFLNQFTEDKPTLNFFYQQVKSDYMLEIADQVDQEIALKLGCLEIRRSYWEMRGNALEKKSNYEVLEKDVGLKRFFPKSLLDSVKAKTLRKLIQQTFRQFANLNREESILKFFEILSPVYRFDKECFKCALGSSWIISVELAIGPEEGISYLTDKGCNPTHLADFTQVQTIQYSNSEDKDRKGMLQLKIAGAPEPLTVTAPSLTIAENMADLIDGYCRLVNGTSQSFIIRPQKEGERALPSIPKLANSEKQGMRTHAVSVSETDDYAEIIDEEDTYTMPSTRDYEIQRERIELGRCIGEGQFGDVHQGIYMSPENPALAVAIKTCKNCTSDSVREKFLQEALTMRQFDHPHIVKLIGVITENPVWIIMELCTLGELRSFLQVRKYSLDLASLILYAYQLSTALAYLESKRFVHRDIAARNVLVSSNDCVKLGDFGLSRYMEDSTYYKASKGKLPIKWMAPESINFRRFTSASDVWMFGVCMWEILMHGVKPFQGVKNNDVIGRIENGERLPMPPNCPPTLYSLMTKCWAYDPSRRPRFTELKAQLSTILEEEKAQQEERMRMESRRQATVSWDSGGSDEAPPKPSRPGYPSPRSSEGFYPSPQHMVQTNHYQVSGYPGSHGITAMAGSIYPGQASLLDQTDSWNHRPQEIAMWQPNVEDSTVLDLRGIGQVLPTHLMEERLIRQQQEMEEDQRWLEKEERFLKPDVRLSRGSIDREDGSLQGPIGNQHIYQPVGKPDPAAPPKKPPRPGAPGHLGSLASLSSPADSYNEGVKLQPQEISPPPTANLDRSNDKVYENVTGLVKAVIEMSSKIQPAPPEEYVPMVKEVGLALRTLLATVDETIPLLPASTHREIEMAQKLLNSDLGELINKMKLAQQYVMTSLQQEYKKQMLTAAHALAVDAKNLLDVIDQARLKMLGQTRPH

Compound | decrease of MVD ([1]; p<0.01) [%] | reduction in migration [2] [%] | reduction in invasion [3] [%] | decrease in mean tumor weight compared to control ([1]; nude mice, i.p. tumor, FAK-inhibitor 75 mg/kg oral daily, docetaxel 35 ug IP weekly) [%] | levels of FAK phosphorylation at Y397 (pFAK^Y397) ([4]; HeyA8 cells, 10 μM) | levels of FAK phosphorylation at Y397 (pFAK^Y397) ([4]; SKOV3-IP1 cells, 1 μM concentration)
Cc1ccc(Nc2nccc(N(C)c3ccc4c(C)n(C)nc4c3)n2)cc1S(N)(=O)=O [pazopanib, 5-[[4-[(2,3-dimethyl-2H-indazol-6-yl)methylamino]-2-pyrimidinyl]amino]-2-methylbenzenesulfonamide, reference compound] | 49 | – | – | – | – | –
CONC(=O)c1ccccc1Nc1cc(Nc2cc(C)nn2C(C)C)ncc1Cl [FAK-inhibitor, 2-[(5-chloro-2-[[3-methyl-1-(1-methylethyl)-1H-pyrazol-5-yl]amino]-4-pyridinyl)amino]-N-methoxybenzamide] | – | 54 | 12.5 | 58 | reduced levels | reduced levels

Reference: US20160067248A1, “COMBINATIONS” (GlaxoSmithKline Intellectual Property Development Limited, priority 2011, published 2016)
